# US20030124104A1, “Probiotic compositions” (priority 2001, published 2003)
# Where “and” joins values, the source holds several entries; their conditions need not be identical. Equal entries are not always repeated. Entries after “also recorded” stand apart in the source; their conditions may differ. Where two headings read alike, the source gives them in different places.
# Tests used:
# Format in all cases: cell-based
# E. faecalis = test: MIC dilutions of bile acids, E. faecalis
# B. subtilis = test: MIC dilutions of bile acids, B. subtilis
# S. pneumoniae = test: MIC dilutions of bile acids, S. pneumoniae
# K. pneumoniae = test: MIC dilutions of bile acids, K. pneumoniae
# P. mirabilils = test: MIC dilutions of bile acids, P. mirabilils
# B. clausii = test: MIC dilutions of bile acids, B. clausii
# E. coli = test: MIC dilutions of bile acids, E. coli
# E. Faecium = test: MIC dilutions of bile acids, E. Faecium
# S. aureus = test: MIC dilutions of bile acids, S. aureus
Structure (SMILES),"MIC (E. faecalis; Enterococcus faecalis, read-out: MIC)","MIC (B. subtilis; Bacillus subtilis, read-out: MIC)","MIC (S. pneumoniae; Streptococcus pneumoniae, read-out: MIC)","MIC (K. pneumoniae; Klebsiella pneumoniae, read-out: MIC)",MIC (P. mirabilils; read-out: MIC),"MIC (B. clausii; Shouchella clausii, read-out: MIC)",MIC (E. coli; Escherichia coli),"MIC (E. Faecium; Enterococcus faecium, read-out: MIC)","MIC (S. aureus; Staphylococcus aureus, read-out: MIC)",MIC (E. faecalis),MIC (B. subtilis),MIC (S. pneumoniae),MIC (K. pneumoniae),MIC (P. mirabilils),MIC (B. clausii),MIC (E. coli; E. coli),MIC (E. Faecium),MIC (S. aureus)
"C[C@H](CCC(=O)NCCS(=O)(=O)O)[C@H]1CC[C@H]2[C@@H]3CC[C@@H]4C[C@H](O)CC[C@]4(C)[C@H]3C[C@H](O)[C@]12C [TDOC, tauro-deoxycholic acid]",25000 µg/mL and 51200 µM,195 µg/mL and 400 µM,25000 µg/mL and 51200 µM,≥ 25000 µg/mL and ≥ 51200 µM,≥ 25000 µg/mL and ≥ 51200 µM,24 µg/mL and ≤ 50 µM,≥ 25000 µg/mL and ≥ 51200 µM,3120 µg/mL and 6400 µM,≥ 25000 µg/mL and ≥ 51200 µM,,,,,,,,,
"C[C@H](CCC(=O)O)[C@H]1CC[C@H]2[C@@H]3CC[C@@H]4C[C@H](O)CC[C@]4(C)[C@H]3C[C@H](O)[C@]12C [DOC, deoxycholic acid]",,,,,,,,,,625 μg/mL and (1.6) mM,78 μg/mL and (0.2) mM,20 μg/mL and (0.05) mM,≧20 μg/mL; also recorded: (≧0.05) mM,≧20 μg/mL; also recorded: (≧0.05) mM,78 μg/mL and (0.2) mM,≧20 μg/mL; also recorded: (≧0.05) mM,625 μg/mL and (1.6) mM,≧20 000 μg/mL; also recorded: (≧51.2) mM
